Source: patent publication US12109184B2, “Personalized methods of treating cancer” (CANCER RESEARCH TECHNOLOGY LIMITED, priority 2020, dated 2024)

Legend:
Type in all cases: cell-based
[1] = tested on: HCT116, SW480 and MDA-MB-468 cells; assay: Cell counting during cysteine starvation, starvation-resistant cell lines
Method: (§1) The base medium formulation contained 0.2 mM L-histidine, 0.4 mM L-isoleucine, 0.4 mM L-leucine, 0.4 mM L-lysine, 0.2 mM L-phenylalanine, 0.4 mM L-threonine, 0.08 mM L-tryptophan, 0.4 mM L-valine, 0.2 mM L-arginine, 2 mM L-glutamine, 0.2 mM L-tyrosine, 0.4 mM L-alanine, 0.3 mM L-proline, 0.15 mM L-glutamic acid, 0.1 mM L-aspartic acid, 0.2 mM L-asparagine, and 0.4 mM glycine.
(§2) DAPI-stained cell nuclei were detected via microscopy.
(§3) AMD1 inhibitor sardomozide/SAM486A, GPX4 inhibitor RSL3, and CSE inhibitor beta-cyano-L-alanine were used.
(§4) For experiments using spermine oxidase (SMOX) and polyamine oxidase (PAOX) inhibitors or MTOB, cells were pre-treated with stated concentrations for 16 hours in complete medium. After pre-treatment, cells were washed in PBS, and treatment was continued in complete or cysteine-free medium for stated times. After treatment was finished, cells were fixed and stained as described above. For experiments using MTA, polyamines, GPX4 and CSE inhibitors, treatment started at the same time as cysteine starvation. For experiments involving hypoxic conditions, cells were seeded in normoxic conditions and allowed to adhere for 24 hours before control and cysteine starvation medium was added and cells were immediately transferred either to a humidified cell culture incubator set to 37° C. in 20% O2 (normoxia), or a hypoxia chamber set to 37° C. in 1% O2 (hypoxia) for the stated times. Cells were fixed immediately and stained as described above.

[2] = tested on: SW480 and MDA-MB-231 cells; assay: Cell counting, rescue by cysteine precursors during cysteine starvation; details: supplement at 0.2 mM
Method: HCT116, SW480, MDA-MB-468, MDA-MB-231, AsPC-1, BxPC-3, CFPAC-1, MIAPaCa-2, PANC-1, Panc10.05, SW1990, U-251, LN-18, LN-229, T98G, U-343, A-172 cells were used. Cell lines were authenticated using Short Tandem Repeat (STR) profiling and tested for mycoplasma. Colorectal and breast cancer cell lines were grown in Dulbecco's Modified Eagle Medium (DMEM), pancreatic ductal adenocarcinoma (PDAC) cell lines were grown in Roswell Park Memorial institute (RPMI) 1640. All cell lines were supplemented with penicillin-streptomycin, amphotericin, 2 mM L-glutamine, and 10% fetal bovine serum (FBS). Cells were kept at 37° C. in 5% CO2 in a humidified cell culture incubator. A formulated medium lacking cysteine, cystine, methionine, and serine was used as a base for creating experimental media. The base medium formulation contained 0.2 mM L-histidine, 0.4 mM L-isoleucine, 0.4 mM L-leucine, 0.4 mM L-lysine, 0.2 mM L-phenylalanine, 0.4 mM L-threonine, 0.08 mM L-tryptophan, 0.4 mM L-valine, 0.2 mM L-arginine, 2 mM L-glutamine, 0.2 mM L-tyrosine, 0.4 mM L-alanine, 0.3 mM L-proline, 0.15 mM L-glutamic acid, 0.1 mM L-aspartic acid, 0.2 mM L-asparagine, and 0.4 mM glycine. The base medium was supplemented with 10% dialyzed FBS, penicillin-streptomycin, and amphotericin. To ensure an adequate supply of vitamin B6 (a crucial co-factor for de novo cysteine synthesis), base medium was supplemented with additional 20 μM vitamin B6. The control experimental medium was the base medium supplemented with 0.4 mM L-cysteine, 0.2 mM L-methionine, and 0.4 mM L-serine. The cysteine starvation (−Cys) experimental medium was base medium supplemented with 0.2 mM L-methionine and 0.4 mM L-serine.
Cells were seeded at 6×10^4 cells per well into 24-well plates (triplicate wells per condition) in the relevant complete medium and adhered for a full 24-hour period. A ‘time-0’ plate was included to record the starting cell number to calculate relative cell numbers. Cells were washed once with phosphate-buffered saline (PBS) before receiving experimental medium containing or lacking the specified amino acids, metabolites, or drugs. At the stated time-points the medium was removed, cells were fixed in a 4% formalin-PBS solution. Cells were then washed and stored in PBS before staining with 4′,6-diamidino-2-phenylindole (DAPI)-Triton™ X100-PBS solution for 1 hour, followed by storage in PBS at 4° C. until further analysis. DAPI-stained cell nuclei were detected via microscopy.
Homocysteine, cystathionine, glutathione, putrescine, spermine, spermidine, GPX4 inhibitor ML210, SMOX inhibitor MDL 72527, PAOX inhibitor diminazene aceturate, ferrostatin-1 and erastin were used. AMD1 inhibitor sardomozide/SAM486A, GPX4 inhibitor RSL3, and CSE inhibitor beta-cyano-L-alanine were used. […]

[3] = tested on: MDA-MB-231 cells; assay: Steady state metabolite measurements by LC-MS; details: medium lacking cysteine, supplement 0.2 mM
Method: Metabolomics experiments were performed as follows. Cells were seeded into 6-well plates (5×10^5-1.5×10^6 cells/mL, depending on time-course, triplicate wells per condition) in complete medium and adhered overnight. Cells were washed with PBS, and the relevant experimental media were added for the stated times. Duplicate wells were used for cell counting. Cell counts were used to normalize the volume of lysis solvent prior to metabolite extractions (2×10^6 cells/mL). Cells were washed quickly in PBS, then ice-cold lysis solvent (methanol 50%, acetonitrile 30%, water 20%) was added, and cells were scraped on ice. Lysates were transferred to 1.5 mL tubes on ice, vortexed, then spun by centrifugation at 15,000 rpm at 4° C. for 10 minutes. Supernatants were collected and stored at -80° C. for LC-MS analysis. Prepared samples were analyzed on an LC-MS platform consisting of an […] system and an ExactiveTM mass spectrometer. A Sequant® ZIC®-HILIC column (4.6 mm×150 mm, 3.5 μm) was used to separate the metabolites with the mobile phase using A=0.1% (v/v) formic acid in water and B=0.1% (v/v) formic acid in acetonitrile. A gradient program starting at 20% of A and linearly increasing to 80% at 30 min was used followed by washing (92% of A for 5 mins) and re-equilibration (20% of A for 10 min) steps. The total run time of the method was 45 min. The LC stream was desolvated and ionized in the HESI probe. The ExactiveTM mass spectrometer was operated in full scan mode over a mass range of 70-1,200 m/z at a resolution of 50,000 with polarity switching. The LC-MS raw data was converted into mzML files by using ProteoWizard and imported to MZMine 2.10 for peak extraction and sample alignment. An in-house database including all possible ^13C and ^15N isotopic m/z values of the relevant metabolites was used for the assignment of LCMS signals. Finally the peak areas were used for comparative quantification.

[4] = tested on: breast, colorectal and pancreatic cancer cell lines; assay: Cell counting in complete or cysteine-free medium, cell lines not given; details: supplementation during cysteine starvation
Method: as §1, §2, §3, §4

[5] = tested on: MDA-MB-231, MIAPaCa-2 and PANC-1 cells; assay: Cell counting during cysteine starvation, starvation-sensitive cell lines
Method: as §1, §2, §3, §4

[6] = tested on: MTAP-expressing HCT116 cells; assay: Cell counting during cysteine starvation, MTAP-expressing HCT116; details: SMOX inhibitor, PAOX inhibitor or MTOB supplementation
Description: (§5) [NT] Successfully transfected cells were selected with puromycin and grown as clonal colonies. Clones were selected based initially on MTA efflux measured by liquid chromatography mass spectrometry (LC-MS). Clones with greatest MTA efflux were selected, and methylthioadenosine phosphorylase knockout (MTAP-KO) was then confirmed by western blot. MTAP-KO HCT116 cells were transfected with pCMV-Hygro-MTAP and pCMV-Hygro-negative control vector, selected using hygromycin B, and grown as clonal colonies. Clones were selected based initially on MTA efflux measured by LC-MS. Clones with low MTA efflux were selected, then MTAP re-expression was confirmed by western blot. […] DAPI-stained cell nuclei were detected via microscopy. For experiments using spermine oxidase (SMOX) and polyamine oxidase (PAOX) inhibitors or MTOB, cells were pre-treated with stated concentrations for 16 hours in complete medium. After pre-treatment, cells were washed in PBS, and treatment was continued in complete or cysteine-free medium for stated times. After treatment was finished, cells were fixed and stained as described above. For experiments using MTA, polyamines, GPX4 and CSE inhibitors, treatment started at the same time as cysteine starvation. For experiments involving hypoxic conditions, cells were seeded in normoxic conditions and allowed to adhere for 24 hours before control and cysteine starvation medium was added and cells were immediately transferred either to a humidified cell culture incubator set to 37° C. in 20% O2 (normoxia), or a hypoxia chamber set to 37° C. in 1% O2 (hypoxia) for the stated times. Cells were fixed immediately and stained as described above.

[7] = tested on: MTAP-deleted HCT116 cells; assay: Cell counting during cysteine starvation, MTAP-deleted HCT116
Description: as §5, with “microscopy. […]” for “microscopy.”

N#CC[C@H](N)C(=O)O [beta-cyano-L-alanine]
response to CSE inhibition during cysteine starvation ([1]; HCT116, CSE inhibitor 0.5 mM or 1 mM, 48 h): only a modest response | sensitivity to cysteine starvation ([1]; SW480 and MDA-MB-468, CSE inhibitor 0.5 mM or 1 mM, 48 h): increased the sensitivity to cysteine starvation

N[C@@H](CCSC[C@H](N)C(=O)O)C(=O)O [cystathionine]
rescue of survival/proliferation during cysteine starvation [2]: substantial rescue | intracellular cysteine levels [3]: moderate increases | intracellular homocysteine and cystathionine levels [3]: significantly increased | intracellular γ-glutamylcysteine and GSH levels [3]: more marked increases | rescue from cysteine starvation-induced cell death (summary in discussion) [4]: rescued from starvation-induced cell death

CC(=O)NCC(=O)O.CC(=O)NCC(=O)O.N=C(N)c1ccc(N=NNc2ccc(C(=N)N)cc2)cc1 [diminazene aceturate]
cell death during cysteine starvation ([5]; SMOX inhibitor 50 μM or PAOX inhibitor 10, 40, 80 μM, 16 h pre-treatment then −Cys): prevented cell death | impact on cell survival during cysteine starvation [6]: little impact | cell survival during cysteine starvation ([7]; SMOX inhibitor, PAOX inhibitor or MTOB supplementation): rescued cell survival | cell survival and growth under polyamine treatment concurrent with cysteine starvation ([1]; SMOX and PAOX inhibitors with spermidine or spermine, −Cys): restored HCT116, SW480, and MDA-MB-468 cell survival and growth | advantage during cysteine starvation ([1]; SMOX or PAOX inhibitor, 16 h pre-treatment then −Cys): little or no additional advantage

CCOC(=O)c1ccc(NC2CCCCC2)c(N)c1 [ferrostatin, ferrostatin-1]
proliferation during cysteine starvation ([5]; ferrostatin 1 μM): did not restore proliferation | cell death in response to cysteine starvation ([5]; sensitive cells, ferrostatin 1 μM, 24 h and 72 h): prevented cell death | rescue of increased sensitivity to cysteine starvation ([7]; ferrostatin): rescued | impact on response to cysteine starvation ([1]; more resistant cells, ferrostatin 1 μM, 24 h and 72 h): little impact
